Experimental data from US11951169B2, “Pharmaceutical preparation with curcuminoids nanoparticles and a method for producing the same” (AASTAR PTE LTD, priority 2019, dated 2024).

Assay: Dissolution test (USP apparatus Type II paddles) of capsules containing the gel liquid, HPLC analysis
Type: physicochemical
Settings: capsule
Procedure: An Agilent 1260 Infinity HPLC system consists of a G1330B thermostat, a G1329B auto-injector, a G13150 diode array detector, a G1322A degasser and a high-pressure binary pump. Signal/Noise ratio of the chromatogram generated from this HPLC was used for qualitative and quantitative analyses in this study. The column used was an Angilent Poroshell 120 EC-C18 ([…], 2.7 am). The HPLC was run for 10 minutes at a column temperature of 35° C. under a flow rate of 0.3 ml/min with injection volume being 5 μl. The detection spectrum was set at 426 nm using an elusion medium comprising acetonitrile and 0.1% of aqueous formic acid in a volume ratio of 1:2.
2.0 g of NaCl and 7 ml of HCl were dissolved in 1 L of ultrapure water. The pH was adjusted to 1.2, by using 2M NaOH. 13.121 g of Na2HPO4 were dissolved in 1 L of ultrapure water. The pH was adjusted to 6.8.
A Vankel Varain VK 70000 Dissolution System consisting of VK7000 dissolution system, VK 750D heating circulator, system monitor, 6 Vankel vessels and apparatus Type II paddles, was used in the preparation of a dissolution sample from capsules containing the gel liquid.
The dissolution test was performed in compliance with United States Pharmacopoeia using apparatus Type II paddles. […] 6 capsules were added into 6 vessels respectively. […] 2 μl of the filtrate was injected into the HPLC system for analysis.
Further, 250 ml of pH 6.8 solution was added to the same vessel at 45 minutes and the pH was adjusted to 6.8 using 2M NaOH within 5 minutes. 1-2 ml of the dissolution sample was then collected after 60 minutes, 75 minutes and 120 minutes followed by filtering through a 0.45 μm membrane immediately. 2 μl of the filtrate was injected into the HPLC system for analysis.

Weight dissolved (pH 1.2, 10 min) [µg]	Weight dissolved (pH 1.2, 15 min) [µg]	Weight dissolved (pH 1.2, 30 min) [µg]	Weight dissolved (pH 6.8, 45 min) [µg]	Weight dissolved (pH 6.8, 60 min) [µg]	Weight dissolved (pH 6.8, 75 min) [µg]	Weight dissolved (pH 6.8, 120 min) [µg]	Structure (SMILES)
590 ± 78	4250 ± 686	18908 ± 1819	24155 ± 1397	23746 ± 1347	23497 ± 1859	23937 ± 1826	COc1cc(/C=C/C(=O)CC(=O)/C=C/c2ccc(O)c(OC)c2)ccc1O [Curcumin, curcumin]
	195 ± 22	831 ± 87	745 ± 48	747 ± 45	739 ± 68	763 ± 69	COc1cc(/C=C/C(=O)CC(=O)/C=C/c2ccc(O)cc2)ccc1O [DMC, demthoxycurcumin]
